Values after ≈ are worked out from the molar mass of the structure shown.

Format in all cases: functional
In one test the test system is Nannizzia gypsea. Briefly: Antifungal activity against Microsporum gypseum by micro-broth dilution method. (In general: Broth dilution looks for growth in wells or tubes with falling amounts of substance.)
The subject of the next test is Aspergillus fumigatus. Briefly: Antifungal activity against Aspergillus fumigatus by micro-broth dilution method.
Another test deals with Cryptococcus neoformans. Nature of the test: Antifungal activity against Cryptococcus neoformans after 72 hrs by micro-broth dilution method.
The test system of a further test is Trichophyton rubrum. Briefly: Antifungal activity against Trichophyton rubrum by micro-broth dilution method.
Test [1] relates to Candida albicans. Nature of the test: Antifungal activity against Candida albicans SC5314 after 24 hrs by micro-broth dilution method. The following applies: SC5314, 24 h.
Test [2] has as its system Candida albicans. Briefly: Antifungal activity against Candida albicans Y0109 after 24 hrs by micro-broth dilution method. The following applies: Y0109, 24 h.
The test system of another test is Candida parapsilosis. Nature of the test: Antifungal activity against Candida parapsilosis by micro-broth dilution method. Particulars: Lodderomyces parapsilosis.
The next test deals with Nakaseomyces glabratus. Nature of the test: Antifungal activity against Candida glabrata by micro-broth dilution method.

For `OC(CSC(=S)N1CCN(Cc2ccccc2)CC1)(Cn1cncn1)c1ccc(F)cc1F` (racemic), the MIC80 is 2 µg/mL (≈ 4.08 µM) with Nannizzia gypsea; 4 µg/mL (≈ 8.17 µM) against Aspergillus fumigatus; 0.25 µg/mL (≈ 0.511 µM) against Cryptococcus neoformans; 2 µg/mL (≈ 4.08 µM) in the test on Trichophyton rubrum; no more than 0.125 µg/mL with Candida albicans [1]; no more than 0.125 µg/mL in the test with Candida albicans [2]. Further, the MIC80 came to 1 µg/mL (≈ 2.04 µM) against Candida parapsilosis and 0.25 µg/mL (≈ 0.511 µM) in the test with Nakaseomyces glabratus.
For `OC(CSC(=S)NCc1ccccc1)(Cn1cncn1)c1ccc(F)cc1F` (racemic), the MIC80 was 32 µg/mL (≈ 76.1 µM) in the test on Nannizzia gypsea; greater than 64 µg/mL in the test on Aspergillus fumigatus; 16 µg/mL (≈ 38 µM) in the test on Cryptococcus neoformans; 0.5 µg/mL (≈ 1.19 µM) in the test on Trichophyton rubrum; 0.5 µg/mL (≈ 1.19 µM) against Candida albicans [1]; 1 µg/mL (≈ 2.38 µM) in the test on Candida albicans [2]. In addition, the MIC80 in the test on Candida parapsilosis and in the test on Nakaseomyces glabratus was 8 µg/mL (≈ 19 µM) throughout.
With `OC(Cn1cncn1)(Cn1cncn1)c1ccc(F)cc1F` [FLUCONAZOLE], the MIC80 against Nannizzia gypsea is 32 µg/mL (≈ 104 µM); against Aspergillus fumigatus, greater than 64 µg/mL; with Cryptococcus neoformans, 1 µg/mL (≈ 3.27 µM); with Trichophyton rubrum it was 4 µg/mL (≈ 13.1 µM); with Candida albicans [1] it was 0.25 µg/mL (≈ 0.816 µM); with Candida albicans [2] it was 0.25 µg/mL (≈ 0.816 µM). In addition, the MIC80 against Candida parapsilosis and in the test on Nakaseomyces glabratus was 2 µg/mL (≈ 6.53 µM) each time.
Consider `CN(C(=S)SCC(O)(Cn1cncn1)c1ccc(F)cc1F)c1ccccc1` (racemic), for which the MIC80 against Nannizzia gypsea amounted to 2 µg/mL (≈ 4.76 µM); against Aspergillus fumigatus, 64 µg/mL (≈ 152 µM); against Cryptococcus neoformans, 1 µg/mL (≈ 2.38 µM); with Trichophyton rubrum it was 2 µg/mL (≈ 4.76 µM); against Candida albicans [1], 0.5 µg/mL (≈ 1.19 µM); in the test on Candida albicans [2], 0.25 µg/mL (≈ 0.595 µM). Further, the MIC80 against Candida parapsilosis is 32 µg/mL (≈ 76.1 µM); in the test with Nakaseomyces glabratus, 0.5 µg/mL (≈ 1.19 µM).
Take `CN1CCN(C(=S)SCC(O)(Cn2cncn2)c2ccc(F)cc2F)CC1` (racemic): the MIC80 is 4 µg/mL (≈ 9.67 µM) against Nannizzia gypsea; 8 µg/mL (≈ 19.3 µM) in the test on Aspergillus fumigatus; 0.25 µg/mL (≈ 0.605 µM) in the test with Cryptococcus neoformans; 1 µg/mL (≈ 2.42 µM) against Trichophyton rubrum; no more than 0.125 µg/mL with Candida albicans [1]; no more than 0.125 µg/mL against Candida albicans [2]. For the same molecule, the MIC80 against Candida parapsilosis is 0.25 µg/mL (≈ 0.605 µM); against Nakaseomyces glabratus, no more than 0.125 µg/mL.
For `COc1ccc(N2CCN(C(=S)SCC(O)(Cn3cncn3)c3ccc(F)cc3F)CC2)cc1` (racemic), the MIC80 was 2 µg/mL (≈ 3.96 µM) against Nannizzia gypsea; 8 µg/mL (≈ 15.8 µM) in the test with Aspergillus fumigatus; 0.25 µg/mL (≈ 0.494 µM) against Cryptococcus neoformans; 1 µg/mL (≈ 1.98 µM) against Trichophyton rubrum; no more than 0.125 µg/mL against Candida albicans [1]; no more than 0.125 µg/mL against Candida albicans [2]. The figures for the MIC80 in the test on Candida parapsilosis and against Nakaseomyces glabratus were 0.25 µg/mL (≈ 0.494 µM) and no more than 0.125 µg/mL, respectively.
Turning to `CCN(CC)C(=S)SCC(O)(Cn1cncn1)c1ccc(F)cc1F` (racemic), the MIC80 is 4 µg/mL (≈ 10.3 µM) against Nannizzia gypsea; 8 µg/mL (≈ 20.7 µM) against Aspergillus fumigatus; 0.25 µg/mL (≈ 0.647 µM) in the test on Cryptococcus neoformans; 8 µg/mL (≈ 20.7 µM) against Trichophyton rubrum; no more than 0.125 µg/mL with Candida albicans [1]; no more than 0.125 µg/mL with Candida albicans [2]. Further, the MIC80 against Candida parapsilosis is 0.5 µg/mL (≈ 1.29 µM); against Nakaseomyces glabratus, no more than 0.125 µg/mL.
For `CCCNC(=S)SCC(O)(Cn1cncn1)c1ccc(F)cc1F` (racemic), the MIC80 was greater than 64 µg/mL against Nannizzia gypsea; greater than 64 µg/mL in the test on Aspergillus fumigatus; 64 µg/mL (≈ 172 µM) with Cryptococcus neoformans; 32 µg/mL (≈ 85.9 µM) with Trichophyton rubrum; 0.25 µg/mL (≈ 0.671 µM) in the test with Candida albicans [1]; 0.25 µg/mL (≈ 0.671 µM) against Candida albicans [2]. Also, the figures for the MIC80 against Candida parapsilosis and with Nakaseomyces glabratus were greater than 64 µg/mL and 2 µg/mL (≈ 5.37 µM), respectively.
For the molecule `OC(CSC(=S)N1CCN(c2ccccc2F)CC1)(Cn1cncn1)c1ccc(F)cc1F` (racemic), the MIC80 is greater than 64 µg/mL against Nannizzia gypsea; greater than 64 µg/mL in the test on Aspergillus fumigatus; 0.5 µg/mL (≈ 1.01 µM) in the test with Cryptococcus neoformans; 1 µg/mL (≈ 2.03 µM) in the test on Trichophyton rubrum; 0.5 µg/mL (≈ 1.01 µM) against Candida albicans [1]; 0.5 µg/mL (≈ 1.01 µM) in the test with Candida albicans [2]. Also, the MIC80 against Candida parapsilosis was found to be 2 µg/mL (≈ 4.05 µM); with Nakaseomyces glabratus, 0.5 µg/mL (≈ 1.01 µM).
Consider `OC(CSC(=S)N1CCN(c2ccccc2Cl)CC1)(Cn1cncn1)c1ccc(F)cc1F` (racemic), for which the MIC80 was 2 µg/mL (≈ 3.92 µM) in the test on Nannizzia gypsea; 8 µg/mL (≈ 15.7 µM) against Aspergillus fumigatus; no more than 0.125 µg/mL with Cryptococcus neoformans; 1 µg/mL (≈ 1.96 µM) against Trichophyton rubrum; no more than 0.125 µg/mL in the test with Candida albicans [1]; no more than 0.125 µg/mL with Candida albicans [2]. Further, the MIC80 against Candida parapsilosis and in the test on Nakaseomyces glabratus was 0.5 µg/mL (≈ 0.98 µM) each time.
In the case of `C=CCNC(=S)SCC(O)(Cn1cncn1)c1ccc(F)cc1F` (racemic), the MIC80 is 64 µg/mL (≈ 173 µM) against Nannizzia gypsea; greater than 64 µg/mL in the test with Aspergillus fumigatus; 64 µg/mL (≈ 173 µM) with Cryptococcus neoformans; 64 µg/mL (≈ 173 µM) against Trichophyton rubrum; 0.5 µg/mL (≈ 1.35 µM) against Candida albicans [1]; 0.5 µg/mL (≈ 1.35 µM) in the test on Candida albicans [2]. The MIC80 against Candida parapsilosis is 2 µg/mL (≈ 5.4 µM); against Nakaseomyces glabratus it was 4 µg/mL (≈ 10.8 µM).
With `CN(C/C=C/C#CC(C)(C)C)Cc1cccc2ccccc12` [TERBINAFINE], the MIC80 came out at 0.0625 µg/mL (≈ 0.214 µM) in the test on Nannizzia gypsea; 0.25 µg/mL (≈ 0.858 µM) with Aspergillus fumigatus; 0.25 µg/mL (≈ 0.858 µM) against Cryptococcus neoformans; 0.0625 µg/mL (≈ 0.214 µM) with Trichophyton rubrum; 4 µg/mL (≈ 13.7 µM) in the test on Candida albicans [1]; 16 µg/mL (≈ 54.9 µM) with Candida albicans [2]. Besides, the MIC80 was 1 µg/mL (≈ 3.43 µM) in the test with Candida parapsilosis and 2 µg/mL (≈ 6.86 µM) in the test on Nakaseomyces glabratus.

For orientation: MIC80 means the lowest concentration that inhibits either 80% of growth or 80% of the strains tested, depending on the study. Higher therefore signals weaker potency.

The values above are taken from ChEMBL document CHEMBL3112568, “Synthesis, antifungal activities and molecular docking studies of novel 2-(2,4-difluorophenyl)-2-hydroxy-3-(1H-1,2,4-triazol-1-yl)propyl dithiocarbamates” (2014).
